{
  "source": "patent EP1023075B1",
  "about": "“LIQUID PRESENTATIONS OF OXAZAPHOSPHORINE-CONTAINING PHARMACEUTICAL PRODUCTS” (STADA ARZNEIMITTEL AG, priority 1997, dated 1999)",
  "key": {"[1]": {"conditions": "cited from earlier work"}, "[2]": {"test": "Solubility trials: saturation concentration of the oxazaphosphorine in water / aqueous urea solution", "conditions": "for pH-Wert: saturated Ifosfamid solution"}, "[3]": {"conditions": "water, Sättigungskonzentration in Wasser, in Wasser"}},
  "note": "Where two headings read alike, the source gives them in different places.",
  "data": [
    {"smiles": "O=P1(N(CCCl)CCCl)NCCCO1", "note": "(stereo not shown) [Cyclophosphamid]", "values": [
      {"measurement": "Wirkstoffverlust", "setting": "[1]; 2%ige (G/V) wäßrige Cyclophosphamidlösungen, 2 bis 8°C, nach 17 Wochen, 171360 min", "result": "≤ 10", "unit": "%"},
      {"measurement": "Wirkstoffverlust", "setting": "[1]; 2%ige (G/V) wäßrige Cyclophosphamidlösungen, Raumtemperatur, nach 7 Tagen", "result": "≤ 10", "unit": "%"},
      {"measurement": "solubility", "setting": "[2]; aqueous urea solution, Cyclophosphamid-Endkonzentration, Harnstoff-Startkonzentration 10 % (G/V), Harnstoff-Endkonzentration 9,1 % (G/G)", "result": 87, "unit": "mg/mL"},
      {"measurement": "solubility", "setting": "[2]; aqueous urea solution, Cyclophosphamid-Endkonzentration, Harnstoff-Startkonzentration 20 % (G/V), Harnstoff-Endkonzentration 17,0 % (G/G)", "result": 112, "unit": "mg/mL"},
      {"measurement": "solubility", "setting": "[2]; aqueous urea solution, Cyclophosphamid-Endkonzentration, Harnstoff-Startkonzentration 30 % (G/V), Harnstoff-Endkonzentration 24,2 % (G/G)", "result": 136, "unit": "mg/mL"},
      {"measurement": "solubility", "setting": "[2]; aqueous urea solution, Cyclophosphamid-Endkonzentration, Harnstoff-Startkonzentration 40 % (G/V), Harnstoff-Endkonzentration 30,3 % (G/G)", "result": 172, "unit": "mg/mL"},
      {"measurement": "solubility", "setting": "[2]; aqueous urea solution, Cyclophosphamid-Endkonzentration, Harnstoff-Startkonzentration 45 % (G/V), Harnstoff-Endkonzentration 37,3 % (G/G)", "result": 170, "unit": "mg/mL"},
      {"measurement": "solubility", "setting": "[2]; aqueous urea solution, Cyclophosphamid-Endkonzentration, Harnstoff-Startkonzentration 50 % (G/V), Harnstoff-Endkonzentration 45,2 % (G/G)", "result": 152, "unit": "mg/mL"},
      {"measurement": "solubility", "setting": "[2]; aqueous urea solution, Cyclophosphamid-Sättigungskonzentration, with Harnstoff, up to Harnstoffstartkonzentration 50% (G/V)", "result": "≤ 170", "unit": "mg/mL"},
      {"measurement": "solubility", "setting": "[2]; water, Cyclophosphamid-Endkonzentration, Harnstoff-Startkonzentration 0 % (G/V), Harnstoff-Endkonzentration 0 % (G/G)", "result": 61, "unit": "mg/mL"},
      {"measurement": "solubility", "setting": "[2]; [3]", "result": "~60", "unit": "mg/mL"}
    ]},
    {"smiles": "O=P1(NCCCl)OCCCN1CCCl", "note": "(stereo not shown) [Ifosfamid]", "values": [
      {"measurement": "Wirkstoffverlust", "setting": "[1]; 5%ige und 10%ige (G/V) wäßrige Ifosfamidlösungen, 2 bis 8°C, nach 17 Wochen, 171360 min", "result": "≤ 10", "unit": "%"},
      {"measurement": "Wirkstoffverlust", "setting": "[1]; 5%ige und 10%ige (G/V) wäßrige Ifosfamidlösungen, Raumtemperatur, nach 6 Wochen, 60480 min", "result": "≤ 10", "unit": "%"},
      {"measurement": "solubility", "setting": "[2]; aqueous urea solution, Ifosfamid-Endkonzentration, Harnstoff-Startkonzentration 1,0 % (G/V), Harnstoff-Endkonzentration 0,8 % (G/G)", "result": 128, "unit": "mg/mL"},
      {"measurement": "solubility", "setting": "[2]; aqueous urea solution, Ifosfamid-Endkonzentration, Harnstoff-Startkonzentration 2,0 % (G/V), Harnstoff-Endkonzentration 1,6 % (G/G)", "result": 132, "unit": "mg/mL"},
      {"measurement": "solubility", "setting": "[2]; aqueous urea solution, Ifosfamid-Endkonzentration, Harnstoff-Startkonzentration 3,0 % (G/V), Harnstoff-Endkonzentration 2,4 % (G/G)", "result": 139, "unit": "mg/mL"},
      {"measurement": "solubility", "setting": "[2]; aqueous urea solution, Ifosfamid-Endkonzentration, Harnstoff-Startkonzentration 4,0 % (G/V), Harnstoff-Endkonzentration 3,2 % (G/G)", "result": 147, "unit": "mg/mL"},
      {"measurement": "solubility", "setting": "[2]; aqueous urea solution, Ifosfamid-Endkonzentration, Harnstoff-Startkonzentration 5,0 % (G/V), Harnstoff-Endkonzentration 3,8 % (G/G)", "result": 153, "unit": "mg/mL"},
      {"measurement": "solubility", "setting": "[2]; aqueous urea solution, Ifosfamid-Endkonzentration, Harnstoff-Startkonzentration 6,0 % (G/V), Harnstoff-Endkonzentration 4,4 % (G/G)", "result": 159, "unit": "mg/mL"},
      {"measurement": "solubility", "setting": "[2]; aqueous urea solution, Ifosfamid-Endkonzentration, Harnstoff-Startkonzentration 7,0 % (G/V), Harnstoff-Endkonzentration 4,6 % (G/G)", "result": 169, "unit": "mg/mL"},
      {"measurement": "solubility", "setting": "[2]; aqueous urea solution, Ifosfamid-Endkonzentration, Harnstoff-Startkonzentration 8,0 % (G/V), Harnstoff-Endkonzentration 5,0 % (G/G)", "result": 172, "unit": "mg/mL"},
      {"measurement": "solubility", "setting": "[2]; aqueous urea solution, Ifosfamid-Endkonzentration, Harnstoff-Startkonzentration 9,0 % (G/V), Harnstoff-Endkonzentration 5,1 % (G/G)", "result": 173, "unit": "mg/mL"},
      {"measurement": "solubility", "setting": "[2]; aqueous urea solution, Ifosfamid-Endkonzentration, Harnstoff-Startkonzentration 10,0 % (G/V), Harnstoff-Endkonzentration 6,6 % (G/G)", "result": 370, "unit": "mg/mL"},
      {"measurement": "solubility", "setting": "[2]; aqueous urea solution, Ifosfamid-Endkonzentration, Harnstoff-Startkonzentration 12,5 % (G/V), Harnstoff-Endkonzentration 7,0 % (G/G)", "result": 412, "unit": "mg/mL"},
      {"measurement": "solubility", "setting": "[2]; aqueous urea solution, Ifosfamid-Endkonzentration, Harnstoff-Startkonzentration 15 % (G/V), Harnstoff-Endkonzentration 12,2 % (G/G)", "result": 462, "unit": "mg/mL"},
      {"measurement": "solubility", "setting": "[2]; aqueous urea solution, Ifosfamid-Endkonzentration, Harnstoff-Startkonzentration 20 % (G/V), Harnstoff-Endkonzentration 15,8 % (G/G)", "result": 483, "unit": "mg/mL"},
      {"measurement": "solubility", "setting": "[2]; aqueous urea solution, Ifosfamid-Endkonzentration, Harnstoff-Startkonzentration 30 % (G/V), Harnstoff-Endkonzentration 24,2 % (G/G)", "result": 521, "unit": "mg/mL"},
      {"measurement": "solubility", "setting": "[2]; aqueous urea solution, Ifosfamid-Endkonzentration, Harnstoff-Startkonzentration 40 % (G/V), Harnstoff-Endkonzentration 34,3 % (G/G)", "result": 462, "unit": "mg/mL"},
      {"measurement": "solubility", "setting": "[2]; aqueous urea solution, Ifosfamid-Endkonzentration, Harnstoff-Startkonzentration 50 % (G/V), Harnstoff-Endkonzentration 42,1 % (G/G)", "result": 443, "unit": "mg/mL"},
      {"measurement": "solubility", "setting": "[2]; aqueous urea solution, Ifosfamid-Sättigungskonzentration, bei geeigneter Harnstoffkonzentration", "result": "~500", "unit": "mg/mL"},
      {"measurement": "pH-Wert", "setting": "[2]; Harnstoff-Startkonzentration 0 % (G/V)", "result": "5,2"},
      {"measurement": "pH-Wert", "setting": "[2]; Harnstoff-Startkonzentration 1,0 % (G/V)", "result": "5,0"},
      {"measurement": "pH-Wert", "setting": "[2]; Harnstoff-Startkonzentration 2,0 % (G/V)", "result": "5,0"},
      {"measurement": "pH-Wert", "setting": "[2]; Harnstoff-Startkonzentration 3,0 % (G/V)", "result": "5,0"},
      {"measurement": "pH-Wert", "setting": "[2]; Harnstoff-Startkonzentration 4,0 % (G/V)", "result": "5,1"},
      {"measurement": "pH-Wert", "setting": "[2]; Harnstoff-Startkonzentration 5,0 % (G/V)", "result": "5,1"},
      {"measurement": "pH-Wert", "setting": "[2]; Harnstoff-Startkonzentration 6,0 % (G/V)", "result": "5,1"},
      {"measurement": "pH-Wert", "setting": "[2]; Harnstoff-Startkonzentration 7,0 % (G/V)", "result": "5,1"},
      {"measurement": "pH-Wert", "setting": "[2]; Harnstoff-Startkonzentration 8,0 % (G/V)", "result": "5,1"},
      {"measurement": "pH-Wert", "setting": "[2]; Harnstoff-Startkonzentration 9,0 % (G/V)", "result": "5,2"},
      {"measurement": "pH-Wert", "setting": "[2]; Harnstoff-Startkonzentration 10,0 % (G/V)", "result": "5,1"},
      {"measurement": "pH-Wert", "setting": "[2]; Harnstoff-Startkonzentration 12,5 % (G/V)", "result": "5,0"},
      {"measurement": "pH-Wert", "setting": "[2]; Harnstoff-Startkonzentration 15 % (G/V)", "result": "5,0"},
      {"measurement": "pH-Wert", "setting": "[2]; Harnstoff-Startkonzentration 20 % (G/V)", "result": "5,0"},
      {"measurement": "pH-Wert", "setting": "[2]; Harnstoff-Startkonzentration 30 % (G/V)", "result": "5,0"},
      {"measurement": "pH-Wert", "setting": "[2]; Harnstoff-Startkonzentration 40 % (G/V)", "result": "5,0"},
      {"measurement": "pH-Wert", "setting": "[2]; Harnstoff-Startkonzentration 50 % (G/V)", "result": "5,0"},
      {"measurement": "solubility", "setting": "[2]; water, Ifosfamid-Endkonzentration, Harnstoff-Startkonzentration 0 % (G/V), Harnstoff-Endkonzentration 0 % (G/G)", "result": 118, "unit": "mg/mL"},
      {"measurement": "solubility", "setting": "[2]; [3]", "result": "~120", "unit": "mg/mL"}
    ]}
  ]
}
